Data on one compound can be found in patent US20060287251A1, “Combination therapy for glycaemic control” (priority 2003, published 2006).

Format in all cases: in vivo, rat
Test [1] concerns Zucker (fa/fa) rats. The experiment in a line: Combination therapy of glutaminyl thiazolidine with other oral antidiabetics in Zucker (fa/fa) rats. The conditions noted are these: after 14 days subchronic medication; versus Control; GT 60 mg/kg b.w. b.i.d. oral. As to the method: Standard pelleted chow (ssniff®, Soest, Germany) and tap water acidified with HCl were allowed ad libitum. At the age of 12 weeks the animals (N=42) were divided in random order into six experimental groups to be medicated.
(§1) During the two weeks of medication morning blood glucose was measured before the 08:00 AM medication at Monday, Wednesday and Friday.
A second OGTT was performed after two weeks of medication (Day 15).

In test [2] the test system is diabetic Zucker (fa/fa) rats. The experiment in a line: Glutaminyl thiazolidine and Metformin alone or in combination, glycemic control in diabetic Zucker (fa/fa) rats. As to the method: Ten or eleven weeks old male Zucker (fa/fa) rats were purchased from Charles River (Sulzfeld, Germany). Animals were kept under standardized semi-barrier conditions with controlled temperature (22±2° C.) on a 12/12 hours light/dark cycle (light on at 06:00 a.m.). Standard pelleted chow (ssniff®, Soest, Germany) and tap water acidified with HCl were allowed ad libitum. At the age of 12 weeks the animals (N=42) were divided in random order into six experimental groups to be medicated. Definition of the Experimental Groups for the Medications (GT=glutaminyl thiazolidine):
The single or combined doses per kg b.w. were solved in 5 mL dist. water for oral administration.
The study was started with the 12 to 13 weeks old Zucker (fa/fa) rats. At the beginning of the study an OGTT was performed (2 g glucose/kg body weight (b.w.); administration volume: 5 mL/kg of a 40% solution; B. Braun Melsungen, Melsungen, Germany) after a 16 h fast. […] Dosing was performed at t=5 min before OGTT by gavage.
Blood samples were taken from tail veins to measure blood glucose and serum insulin at −15, ±0 min, 15, 30, 60, 90, 120 and 180 min (the latter time without insulin samples) with respect to time of glucose administration.
After the first OGTT the animals in the groups were dosed twice daily with the respective drugs at 08:00 AM and at 04:00 PM, respectively:
as §1
Food intake was determined every day during the time of medication.
All the animals were weighted three times per week at 7:30 AM.
A second OGTT was performed after two weeks of medication (Day 15). The food was withdrawn at 04:00 PM the day before (16 h fast). The OGTT was performed with pre-medication at −5 min and oral glucose loading at ±0 min. Blood samples were taken from tail veins to measure blood glucose, and serum insuline at −15, ±0 min, 15, 30, 60, 90, 120 and 180 min (the latter time without insulin samples).
Glycated hemoglobin was measured before (Day −7) and on Day 18.
Glucose-For determination of glucose 20 μL blood were collected at −15, ±0 min (before OGTT) and 15, 30, 60, 90, 120 and 180 min post OGTT.
Insulin-Insulin concentrations were assayed by the antibody RIA method (Linco Research, Inc. St. Charles, Mo., USA).
Glycated haemoglobin-Percentage of glycated hemoglobin A (HbA1c) was estimated with the “DCA 2000R Hämoglobin A1c-Reagenz kit”(Bayer Vital GmbH, Fernwald, Germany).
The body weight was measured using a platform balance (Scaltec, Heiligenstadt, Germany).
Mixed venous blood samples from the tails were collected into 20 μL glass capillaries, which were placed in standard tubes filled with 1 ml solution for hemolysis (blood glucose measurement) and in sample tubes for serum insulin (50 μL blood).
Raw data of glucose analysis were provided by IDK to probiodrug in Excel format as soon as possible. Data for each drug and each parameter (glucose, insulin) were summarized by descriptive statistics (mean, SEM). […] Changes from baseline were calculated and summarized by descriptive statistic.

The subject of test [3] is diet-induced obese (DIO) rats. The experiment in a line: Glycaemic control (OGTT) in diet-induced obese rats with impaired glucose tolerance. Conditions: glutaminyl thiazolidine hydrochloride 60 mg/kg BID, Metformin 125 mg/kg BID.
Method: Selectively bred male rats, 5-6 weeks of age, displaying enhanced likelihood of developing diet-induced obesity (DIO) are selected from the breeding colony. A total of 40 DIO animals are included in the study.
Upon entry to the experiment, rats are housed individually (1 rat/cage) in a 12/12 light-dark cyldle (light from 0600-1800 h) with controlled temperature conditions (22-24° C.). […] After one week of acclimatisation, 24 h food and water intake and body-weight is measured gravimetrically twice weekly (in the morning between 8-10 am). After 3 weeks of HF feeding, average daily food consumption is calculated for all rats. The average food intake comprises a platform from which a scheduled feeding regime is implemented. […]
This test is carried out at 8:00 AM on days 6 and 42. […] Blood samples are taken from an indwelling arterial catheter and P-glucose is measured on automated analyser (Roche Diagnostics) at time points −60, −30, 0, 15, 30, 60, 120, and 180 min after oral administration of 1 g/kg glucose (using 1 g/ml dH2O). […] P-insulin is measured at time points: 0, 15, 30, 60, 120 using an ultra-sensitive ELISA (Shibayagi,Japan).
All rats are equipped with intra-arterial catheters at day −7. […] All blood samples are taken in EDTA Vacutainer tubes and plasma glucose is measured together with total Cholesterol and triacylglycerol. […]

On to `NC(=O)CC[C@H](N)C(=O)N1CCSC1` [glutaminyl thiazolidine], for which the “glucose tolerance, OGTT-2” value in test [1] is “improved glucose tolerance”. In addition, in test [2] (GT 60 mg/kg b.w. and/or Metformin 125 mg/kg b.w. (Met-low), b.i.d. oral, p<0.05 vs. Control), the “reactive and absolute G-AUC” value is listed as “significantly reduced”. Besides, the “glucose tolerance curve in the OGTT” value in test [2] (GT 60 mg/kg b.w. and/or Metformin 125 mg/kg b.w. (Met-low), b.i.d. oral, vs. Control) is “significantly improved glucose tolerance curves”. Further, in test [2] (subchronic (18 days) b.i.d. administration, diabetic fatty Zucker rats (fa/fa)), the glucose tolerance entry is reported as “improved glucose tolerance”. Besides, in test [3], the oral glucose tolerance result is on record as “improved oral glucose tolerance”.
